Test results published in publication doi:10.1101/815415v1 (biorxiv, 2019).

Molecular target: xylanase from Bacillus circulans (BCX) (Niallia circulans, UniProt P09850)
Assay: NMR titration, 1H-15N HSQC 2D lineshape fit
Assay type: binding
Conditions: 25 mM sodium acetate, pH 5.8, 6% D2O, 20 °C; active site -1/-2 subsites

Kd: 10 mM
Structure (SMILES): OC1OC[C@@H](O[C@@H]2OC[C@@H](O)[C@H](O)[C@H]2O)[C@H](O)[C@H]1O (stereo partly shown) [X2, xylobiose]
